Reference: PMC10046901, “Molecular Analysis of the Superior Efficacy of a Dual Epidermal Growth Factor Receptor (EGFR)-DNA-Targeting Combi-Molecule in Comparison with Its Putative Prodrugs 6-Mono-Alkylamino- and 6,6-Dialkylaminoquinazoline in a Human Osteosarcoma Xenograft Model” (Cells, 2023)

Assay: Plasma and tumor metabolism by LC-MS and LC-MS/MS
Type: in vivo, NSG male mice
Details: 3 h after administration; for in vivo metabolism of administered drug (LC-MS): tumor and plasma; for in vivo metabolism of administered drug (LC-MS) / concentration of released ZR2002 in treated tumors relative to ZR2002-treated tumors: 80 mg/kg oral; for concentration of released ZR2002 in treated tumors relative to ZR2002-treated tumors: tumor, N = 4
Method: In order to study the drug pharmacokinetics, 1 last dose (the 11th dose) was administered 3 h prior to sacrifice and after a break of 5 days from the previous drug administration.
At the end of the study, the mice were sacrificed, and the plasma and tumors were collected. The plasma was stored at −80 °C, and the tumor tissues were transversely cut into 2 parts: 1 was immediately frozen in liquid nitrogen and stored at −80 °C for Western blots and LC-MS analysis; the other was fixed in 4% paraformaldehyde and used for histology.
Individual stock solutions of ZR2002 and Nitro-RB10 (IS) were prepared in DMSO at 10 mg/mL and, after, in MeOH at a concentration of 100 μg/mL. Intermediate dilutions were prepared using ACN:water (35:65, v:v). All stock and working solutions were stored at −20 °C and brought to room temperature before use.
The dynamic range for the calibration curve ranged from 0.4 to 150 ng/mL, including 0.4, 1, 5, 10, 50, 80, 100 and 150 ng/mL in plasma and tumor matrix. These standards were prepared by spiking an appropriate volume of a standard spiking solution into the blank extracted plasma or tumor and vortexing. A total of 3 levels of QC samples were run during the analysis, including a low QC of 1 ng/mL, a mid QC of 10 ng/mL and a high QC of 100 ng/mL. These QC samples were prepared by spiking an appropriate volume of the spiking solution into the matrix blank. An appropriate volume of the IS spiking solution was then spiked into the calibration standards and QC samples to generate a final IS concentration of 15 ng/mL in the matrix. All samples were vortexed gently, completing the sample preparation process.
An amount of 50 μL of each plasma sample was deproteinized with 200 µL of cold ACN. The samples were mixed for 10 s, shaken automatically for 10 min and centrifuged for 10 min at 15,000 rpm (21,130 rcf) at 4 °C. After centrifugation, the supernatants were loaded into Captiva-Enhanced Matrix Removal (EMR)-Lipid cartridges (1.0 mL; 40 mg; Agilent, Santa Clara, CA, USA) and settled for 5 min. The supernatants were eluted by applying a positive pressure (2 psi for 2 min) using a positive pressure manifold (PPM 96 processor, Agilent Techn.). The cartridges were washed with ACN:water (8:2, v:v) 100 μL, at 2–4 psi for 2 min, followed by a 1-min period of high pressure (6–9 psi) to drain the cartridges. The elutes were transferred to new tubes and dried under vacuum using a Centrivap sample concentrator (Centrivap Complete^TM, Labconco Corporation, Kansas City, MO, USA) at room temperature. The dried samples were stored at −20 °C before LC-MS analysis. On the day of analysis, the samples were reconstituted in 100 µL of MeOH, vortexed for 10 s, sonicated for 5 min (sonic bath, Symphony, VWR International, Radnor, PA, USA) and centrifuged for 5 min at 15,000 rpm. The supernatants were diluted 60 times in 35% ACN, and an appropriate volume of the IS spiking solution was then spiked into the samples to generate a final IS concentration of 15 ng/mL. At the end of the process, all samples were diluted 120 times. These final solutions were transferred to autosampler vials (350 µL, Thermo Fisher Scientific, Waltham, MA, USA), and 10 µL of each was injected into the LC-MS system.
A weighted piece of tumor was crushed in a mortar with liquid nitrogen. To the tumor powder, 150 μL of water was added before deproteinizing the mixture with 600 µL of cold ACN. The samples were mixed for 10s, sonicated with ice in a sonication bath for 30 min to 1 h (Sonicate bath, VWR, International, Radnor, PA, USA) and centrifuged for 10 min at 15,000 rpm (21,130 rcf) at 4 °C (Centrifuge 5424 R, Eppendorf). After centrifugation, the supernatants were loaded into Captiva-Enhanced Matrix Removal (EMR)-Lipid cartridges (1.0 mL; 40 mg; Agilent) and settled for 5 min. The supernatants were eluted by applying a positive pressure (2 psi for 2 min) using a positive pressure manifold (PPM 96 processor, Agilent Techn.). […]

ClCCN(CCCl)c1ccc2ncnc(Nc3cccc(Br)c3)c2c1 [JS61]
in vivo metabolism of administered drug (LC-MS): remained largely intact
concentration of released ZR2002 in treated tumors relative to ZR2002-treated tumors: five times lower

CN(CCCl)c1ccc2ncnc(Nc3cccc(Br)c3)c2c1 [JS84]
in vivo metabolism of administered drug (LC-MS): partially intact and largely converted into RB10-Methyl (peak 7), RB10 (1) and RB10-N-Acetyl (2)
concentration of released ZR2002 in treated tumors relative to ZR2002-treated tumors: five times lower
concentrations of ZR2002 metabolite in treated tumors and plasma vs ZR2002-treated (tumors and plasma): significantly lower

ClCCNc1ccc2ncnc(Nc3cccc(Br)c3)c2c1 [ZR2002]
in vivo metabolism of administered drug (LC-MS): partially metabolized into its deschloroethyl metabolite “RB10” (peak 1) and RB10-N-acetyl (peak 2)
